Like-named read-outs stand apart in the source and are kept apart here.
How the values were obtained:
[1] = test system: IL-10; assay: Gene expression of IL-10 in human synoviocytes (PCR Real Time); format: cell-based; conditions: 3 days of treatment, FIG. 1: HAS1 0.5 mg/ml, HAS3 0.1 mg/ml, vs control treated with non-sulfated HA 200 KD
Description: (§1) Human synoviocytes previously expanded in vitro and maintained in a culture at 37° C. with a medium of DMEM containing 10% of FCS, were seeded at a concentration of 20,000 cells per well (synoviocytes are cells capable of producing various types of cytokines, and are therefore normally used for this type of experimental test). […] After 3 days of treatment, the PCR Real Time was effected to evaluate the gene expression of IL-10 and IL-12: the cell RNA was extracted using the “Trizol” method, following the indications of the supplier (TRIZOL reagent, LIFE Technologies, GIBCO BRL). In short, the cells were lysed by the addition of 1.0 ml of Trizol and the total RNA was quantified by measuring its absorbance at 260 nm. The appropriate primers were selected for each gene to be amplified, using the software Primer3 (Roche Molecular Diagnostics, Pleasanton, Calif., USA). The gene expression was evaluated by means of PCR Real Time effected with a Rotor-gene TM5500 (Corbett research, Sydney, Australia). The PCR reactions were effected using primers at […] and SYBR Green (Invitroge, Carlsbad, Calif., USA) at 40 cycles of 15 s at 95° C., and 1 min. at 60° C. The value of “Fluorescence thresholds (Ct)” was automatically determined by the software, evaluating an amplification coefficient for the genes studied between 92 and 110%. […]

[2] = test system: IL-12; assay: Gene expression of IL-12 in human synoviocytes (PCR Real Time); format: cell-based; conditions: 3 days of treatment, FIG. 2: 0.5 mg/ml, vs control treated with non-sulfated HA 200 KD
Description: as §1

[3] = test system: TNF receptor; assay: Inhibition of the binding of 125I-TNF to its receptor in U937 cells (Radioligand Binding); design: species or system human; conditions: 125I-TNF 0.028 nM, sample 1 mg/ml, 4° C. 3 hours, medium and low MW
Description: These experiments were effected to evaluate the effectiveness of the samples tested (prepared according to Examples 1-4) on the capacity of inhibiting the binding of TNF to its receptor expressed by cells of the I.S. normally used in vitro for this type of experiment, carried out with iodinated cytokine components for an evaluation in Radioligand Binding assays. The experimental procedure was effected as described in Baglioni C. et al., J Biol Chem, 1985, 260:13395-13397. In short, the line of human histiocytes of the lymphoma U937 was used, with characteristics of monocytes sensitive to the cytotoxic activity of TNF, expressing its relative receptor. […] At the end of the incubation, the cells were centrifuged with dibutylphthalate/dinonylphthalate 2/1 and the pellet obtained was counted in a γ-counter.

[4] = test system: Herpes Simplex Virus-1 (HSV-1: KOS, F and McIntyre strain); assay: Inhibition of viral cytopathogenicity in E6SM fibroblast cells, HSV-1; format: cell-based; conditions: 2nd day of incubation, numbers only in FIG. 10
[5] = test system: Herpes Simplex Virus-2 (HSV-2: G, 196 and Lyons strain); assay: Inhibition of viral cytopathogenicity in E6SM fibroblast cells, HSV-2; format: cell-based; conditions: 2nd day of incubation, numbers only in FIG. 10
[6] = test system: Vesicular stomatitis virus: VSV; format: cell-based
[7] = test system: Cytomegalovirus (CMV: AD-169 and Davis strain); assay: Inhibition of Cytomegalovirus plaque formation in HEL cells; format: cell-based; conditions: numbers only in FIG. 11
Description: The activity of the samples tested was determined by evaluating the inhibition of the cytopathogenicity determined by Cytomegalovirus (CMV: AD-169 and Davis strain) using the previous protocol. The antiviral activity was tested vs HEL cells (pulmonary embryonic cells) and was expressed as the concentration required for inhibiting the number of plaques formed by the above virus by 50%.

[8] = test system: IL-2; assay: Protein synthesis of IL-2 in human PBMC (SearchLight array); conditions: not stimulated or stimulated with LPS or PHA (10 μg/ml), 24 hours, FIG. 6: HAS1 0.1 mg/ml, HAS3 1 mg/ml, vs HA
Description: (§2) For these experimentations, mononucleate cells of human peripheral blood (PBMC) were adopted, deriving from various donors for evaluating the effect of HAS on the production of the cytokines listed above, using:
(§3) The separation of the PBMC (Bøyum A., Scand J Clin Lab Invest 21 Suppl, 1968, 97:77-89) was effected using the product Ficoll-Paque PLUS (GE Healthcare) and following the protocol indicated by the supplier. At day zero 100,000 cells were plated per well (using plates with 96 wells) in 200 μl of medium RPMI 1640, to which 10% of fetal bovine serum, HEPES 10 mM, Glutamine 2 mM, 1% Penicillin-Streptomycin 100 U/ml, had been added. […] The cells were treated separately with the three compounds at a concentration of 0.1 mg/ml or 1 mg/ml. After 24 hours of incubation at 37° C. (5% CO2), 100 μl of supernatant were taken from each well in order to analyze the production of IL-2, IL-7, IL-10 and IL-12.
(§4) The quantification of the inflammation mediators was effected by means of the SearchLight® technology, using a Custom Human 9-flex Array plate following the protocol indicated by the supplier in the technical card.

[9] = test system: IL-7; assay: Protein synthesis of IL-7 in human PBMC (SearchLight array); conditions: not stimulated or stimulated with LPS or PHA (10 μg/ml), 24 hours, FIG. 7: 1 mg/ml, vs HA
Description: as §2, §3, §4

[10] = test system: IL-12; assay: Protein synthesis of IL-12 in human PBMC (SearchLight array); conditions: not stimulated or stimulated with LPS or PHA (10 μg/ml), 24 hours, FIG. 8: 1 mg/ml, vs HA
Description: as §2, §3, §4

[11] = molecular target: T1, fibrin clot (Homo sapiens, UniProt P02671+P02675+P02679); assay: In vitro fibrinolytic activity: dissolution of fibrin clot in coagulated plasma (absorbance at 405 nm); format: biochemical; conditions: 37° C.
T1 sequence (P02671 20-644 isoform P02671-2 limits assumed): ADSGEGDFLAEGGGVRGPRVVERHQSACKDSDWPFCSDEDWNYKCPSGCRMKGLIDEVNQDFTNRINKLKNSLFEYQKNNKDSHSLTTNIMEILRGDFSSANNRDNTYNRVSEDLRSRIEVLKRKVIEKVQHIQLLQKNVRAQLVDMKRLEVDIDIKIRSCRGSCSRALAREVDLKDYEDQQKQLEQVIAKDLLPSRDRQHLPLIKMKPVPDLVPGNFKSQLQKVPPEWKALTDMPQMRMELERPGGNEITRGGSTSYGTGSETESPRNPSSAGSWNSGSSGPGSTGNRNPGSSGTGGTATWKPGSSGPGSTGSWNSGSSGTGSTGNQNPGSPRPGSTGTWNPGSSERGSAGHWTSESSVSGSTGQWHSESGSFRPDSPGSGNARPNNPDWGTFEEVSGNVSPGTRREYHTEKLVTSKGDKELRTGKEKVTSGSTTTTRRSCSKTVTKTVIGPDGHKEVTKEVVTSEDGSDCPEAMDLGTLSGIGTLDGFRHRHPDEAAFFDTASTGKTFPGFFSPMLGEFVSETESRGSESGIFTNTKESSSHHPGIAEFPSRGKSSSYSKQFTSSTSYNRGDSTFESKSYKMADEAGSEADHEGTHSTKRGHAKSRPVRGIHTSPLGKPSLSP
T1 sequence (P02675 45-491 limits assumed): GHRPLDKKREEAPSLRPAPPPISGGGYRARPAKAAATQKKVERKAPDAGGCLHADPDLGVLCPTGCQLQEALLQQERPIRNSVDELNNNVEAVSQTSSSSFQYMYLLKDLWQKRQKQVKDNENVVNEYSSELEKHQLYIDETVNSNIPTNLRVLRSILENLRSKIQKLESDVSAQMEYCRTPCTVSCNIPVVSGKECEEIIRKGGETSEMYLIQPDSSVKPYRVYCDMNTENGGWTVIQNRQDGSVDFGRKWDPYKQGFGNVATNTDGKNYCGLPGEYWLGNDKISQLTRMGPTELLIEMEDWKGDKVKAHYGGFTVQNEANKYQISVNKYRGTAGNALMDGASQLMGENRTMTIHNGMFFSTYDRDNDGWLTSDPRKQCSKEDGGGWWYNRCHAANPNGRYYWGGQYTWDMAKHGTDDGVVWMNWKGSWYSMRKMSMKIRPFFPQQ
T1 sequence (P02679 27-437 isoform P02679-2 limits assumed): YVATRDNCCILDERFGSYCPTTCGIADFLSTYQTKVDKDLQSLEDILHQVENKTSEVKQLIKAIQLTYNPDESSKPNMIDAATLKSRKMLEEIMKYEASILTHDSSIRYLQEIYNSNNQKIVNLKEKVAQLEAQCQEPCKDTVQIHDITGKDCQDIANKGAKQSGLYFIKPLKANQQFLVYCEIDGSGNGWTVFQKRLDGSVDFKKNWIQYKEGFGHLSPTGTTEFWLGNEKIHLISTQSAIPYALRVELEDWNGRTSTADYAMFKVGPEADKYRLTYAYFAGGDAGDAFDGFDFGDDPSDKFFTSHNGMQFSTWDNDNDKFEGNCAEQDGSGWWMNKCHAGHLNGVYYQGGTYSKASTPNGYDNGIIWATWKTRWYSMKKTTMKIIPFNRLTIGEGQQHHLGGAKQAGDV
Description: The evaluation of the fibrinolytic properties of the products subjected to the test was compared with the acknowledged fibrinolytic activity of the plasmin. In particular, the dissolution rate of the fibrin network and formation of soluble products of the fibrin degradation (FDP), was evaluated.
In order to test the fibrinolytic effectiveness of the products subjected to testing, the blood samples were distributed in various test-tubes in which the clot formation was induced.
The formation of FDP was then evaluated after the addition of:
The freshly removed blood samples were distributed in various test-tubes containing sodium citrate in a ratio of 9:1. The test-tubes were immediately centrifuged at 3,000 rpm for 5 minutes. The plasma obtained was transferred to a new test-tube and immediately used for effecting the FDP evaluation.
Thrombin (300 mU/ml), preheated to 37° C. was added to the plasma samples, as activator of the fibrinogen in inducing the formation of the clot.
The following were added to the different cuvettes containing the fibrin clot:
a plasmin solution 0.5 mU, 5 mU, 50 mU, 500 mU and 1 U
solutions of HAS3 at concentrations of 25 mg/ml, 50 mg/ml, 100 mg/ml, 150 mg/ml and 200 mg/ml.
The absorbance variation at 405 nm for 60 sec. was evaluated spectrophotometrically for each cuvette. The reaction was left to proceed until the complete dissolution of the clot.
Coagulated plasma, plasmin solution and a solution of HAS3 200 KD and HAS3 20 KD were mixed in a ratio of 1:1 v/v and maintained at an operating temperature of 37° C.

## sulfated hyaluronic acid degree 1 [HAS1]
[1]
  gene expression of the cytokine IL-10: significant increase
[2]
  gene expression of IL-12 (synthesis of its mRNA): halving the synthesis of its mRNA
[3]
  inhibition of the binding of TNF to its receptor: 100%
[4]
  antiviral activity (inhibition of the cytopathogenicity of the virus) vs HSV-1: powerful antiviral action
[5]
  antiviral activity (inhibition of the cytopathogenicity of the virus) vs HSV-2: powerful antiviral action
[6]
  antiviral activity (inhibition of the cytopathogenicity of the virus) vs VSV: very powerful antiviral activity
[7]
  antiviral activity vs Cytomegalovirus (inhibition of the number of plaques): clear and significant positive result
[8]
  synthesis of IL-2: significantly reducing
[9]
  synthesis of IL-7: significantly reducing
[10]
  synthesis of IL-12: significantly reducing

## Nc1nc2c(ncn2COCCO)c(=O)[nH]1 [acyclovir, Acyclovir, reference compound]
[6]; E6SM cells, 2nd day of incubation, numbers only in FIG. 10
  antiviral activity (inhibition of the cytopathogenicity of the virus) vs VSV: inactive

B1: PLASMIN: enzyme of the group of hydrolases degrading fibrin; control treatment of acknowledged fibrinolytic activity (protein, UniProt P00747 20-580; P00747 581-810, looked up)
Plasmin heavy chain A: EPLDDYVNTQGASLFSVTKKQLGAGSIEECAAKCEEDEEFTCRAFQYHSKEQQCVIMAENRKSSIIIRMRDVVLFEKKVYLSECKTGNGKNYRGTMSKTKNGITCQKWSSTSPHRPRFSPATHPSEGLEENYCRNPDNDPQGPWCYTTDPEKRYDYCDILECEEECMHCSGENYDGKISKTMSGLECQAWDSQSPHAHGYIPSKFPNKNLKKNYCRNPDRELRPWCFTTDPNKRWELCDIPRCTTPPPSSGPTYQCLKGTGENYRGNVAVTVSGHTCQHWSAQTPHTHNRTPENFPCKNLDENYCRNPDGKRAPWCHTTNSQVRWEYCKIPSCDSSPVSTEQLAPTAPPELTPVVQDCYHGDGQSYRGTSSTTTTGKKCQSWSSMTPHRHQKTPENYPNAGLTMNYCRNPDADKGPWCFTTDPSVRWEYCNLKKCSGTEASVVAPPPVVLLPDVETPSEEDCMFGNGKGYRGKRATTVTGTPCQDWAAQEPHRHSIFTPETNPRAGLEKNYCRNPDGDVGGPWCYTTNPRKLYDYCDVPQCAAPSFDCGKPQVEPKKCPGR
Plasmin light chain B: VVGGCVAHPHSWPWQVSLRTRFGMHFCGGTLISPEWVLTAAHCLEKSPRPSSYKVILGAHQEVNLEPHVQEIEVSRLFLEPTRKDIALLKLSSPAVITDKVIPACLPSPNYVVADRTECFITGWGETQGTFGAGLLKEAQLPVIENKVCNRYEFLNGRVQSTELCAGHLAGGTDSCQGDSGGPLVCFEKDKYILQGVTSWGLGCARPNKPGVYVRVSRFVTWIEGVMRNN
modifications: Plasmin
[11]; plasmin 0.5 mU
  fibrinolytic activity (mAbs/min): 1 mAbs/min
[11]; plasmin 1 U
  fibrinolytic activity (mAbs/min): 190 mAbs/min
[11]; plasmin 5 mU
  fibrinolytic activity (mAbs/min): 68 mAbs/min
[11]; plasmin 50 mU
  fibrinolytic activity (mAbs/min): 126 mAbs/min
[11]; plasmin 500 mU
  fibrinolytic activity (mAbs/min): 178 mAbs/min
